Assay: molar heat capacity at constant pressure
Settings: 101.33 kPa, Liquid, heat bridge-scanning calorimeter

CCCCn1cc[n+](C)c1.F[P-](F)(F)(F)(F)F [1-butyl-3-methylimidazolium hexafluorophosphate]
Settings	molar heat capacity at constant pressure [J/K/mol]
326.94 K	426.56
327.06 K	426.56
327.19 K	426.56
327.31 K	426.56
327.44 K	426.84
327.72 K	427.13
327.85 K	427.13
327.98 K	427.13
328.1 K	427.13
328.23 K	427.41
328.35 K	427.41
328.48 K	427.41
328.61 K	427.41
328.73 K	427.41
328.99 K	427.69
329.11 K	427.69
329.24 K	427.98
329.37 K	427.69
329.49 K	427.98
329.62 K	427.98
329.74 K	428.26
329.87 K	428.26
330 K	428.26
330.12 K	427.98
330.25 K	428.26
330.52 K	428.55
330.65 K	428.55
330.77 K	428.55
330.9 K	428.55
331.03 K	428.55
331.15 K	428.55
331.28 K	428.83
331.4 K	429.12
331.53 K	429.12
331.79 K	429.12
331.91 K	429.12
332.04 K	429.12
332.16 K	429.12
332.29 K	429.12
332.42 K	429.4
332.54 K	429.4
332.67 K	429.4
332.79 K	429.4
332.92 K	429.4
333.05 K	429.4
333.32 K	429.68
333.45 K	429.68
333.58 K	429.97
333.71 K	429.97
333.83 K	429.97
333.96 K	429.97
334.08 K	429.97
334.21 K	429.97
334.34 K	429.97
334.59 K	430.25
334.72 K	430.25
334.84 K	430.25
334.97 K	430.25
335.1 K	430.54
335.22 K	430.54
335.35 K	430.54
335.47 K	430.54
335.6 K	430.82
335.73 K	430.82
335.85 K	430.82
336.12 K	431.1
336.25 K	430.82
336.38 K	430.82
336.5 K	431.1
336.63 K	431.1
336.75 K	431.1
336.88 K	431.39
337.01 K	431.39
337.13 K	431.39
337.39 K	431.39
337.51 K	431.39
337.64 K	431.39
337.76 K	431.39
337.89 K	431.67
338.02 K	431.67
338.14 K	431.96
338.27 K	431.96
338.39 K	431.96
338.52 K	432.24
338.64 K	432.24
338.91 K	432.24
339.04 K	432.53
339.17 K	432.53
339.29 K	432.53
339.43 K	432.81
339.55 K	432.81
339.68 K	432.81
339.8 K	432.81
339.93 K	433.09
340.19 K	433.09

From the NIST ThermoML archive (doi:10.1021/je034102r)
